Measurements as given in ChEMBL document CHEMBL4229478, “Synthesis, Characterization, and Biological Evaluation of a Porphyrin-Based Photosensitizer and Its Isomer for Effective Photodynamic Therapy against Breast Cancer” (J Med Chem, 2018).
Active and inactive are the calls of the source. No cut-off for these calls is given here.

Columns and labels:
Mus musculus [1] = assay: Hepatotoxicity in BALB/c mouse xenografted with mouse 4T1 cells assessed as pathological changes in liver at 4 mg/kg, iv pre-tretaed for 24 hrs followed by 50 J/cm2 light irradiation and measured at day 22 post dose by hematoxylin and eosin staining based light microscopic analysis; assay type: toxicity, organism-based; settings: in vivo
Mus musculus [2] = assay: Hepatotoxicity in BALB/c mouse xenografted with mouse 4T1 cells assessed as pathological changes in liver at 1 to 4 mg/kg, iv pre-tretaed for 24 hrs followed by 50 J/cm2 light irradiation and measured at day 22 post dose by hematoxylin and eosin staining based light microscopic analysis; assay type: toxicity, organism-based; settings: in vivo
MDA-MB-231 [3] = assay: Induction of ROS generation in human MDA-MB-231 cells incubated with DCF-DA probe for 30 mins prior to ROS scavenger NAC addition 1 hr before 2 J/cm2 light irradiation and measured after 1 hr post irradiation by flow cytometric analysis; assay type: functional, cell-based
Mus musculus [4] = assay: Toxicity in BALB/c mouse xenografted with mouse 4T1 cells assessed as pathological changes in spleen at 1 to 4 mg/kg, iv pre-tretaed for 24 hrs followed by 50 J/cm2 light irradiation and measured at day 22 post dose by hematoxylin and eosin staining based light microscopic analysis; assay type: organism-based; settings: in vivo
[5] = Drug uptake in mitochondria of human MDA-MB-231 cells at 10 uM after 4 hrs by Mito tracker green-based confocal laser scanning microscopic analysis; assay type: ADME; settings: mda-mb-231, 4 h
[6] = Induction of singlet oxygen generation in cell free condition upon 635 nm semiconductor laser light irradiation by singlet oxygen sensor green dye based fluorescence spectrophotometeric analysis; assay type: functional
[7] = Drug uptake in lysosome of human MDA-MB-231 cells at 10 uM after 4 hrs by Lyso tracker green-based confocal laser scanning microscopic analysis; assay type: ADME, subcellular; settings: mda-mb-231, 4 h
Mus musculus [8] = assay: Toxicity in BALB/c mouse xenografted with mouse 4T1 cells assessed as effect on body weight at 4 mg/kg, iv measured at day 22 post last dose; assay type: organism-based; settings: in vivo
Mus musculus [9] = assay: Toxicity in BALB/c mouse xenografted with mouse 4T1 cells assessed as effect on body weight at 2 mg/kg, iv pre-tretaed for 24 hrs followed by 50 J/cm2 light irradiation and measured at day 22 post dose; assay type: organism-based; settings: in vivo
MDA-MB-231 [10] = assay: Induction of ROS generation in human MDA-MB-231 cells incubated with DCF-DA probe for 30 mins by flow cytometric analysis (reference value: 2.1%); assay type: cell-based; settings: mda-mb-231, 0.5 h
4T1 [11] = assay: Phototoxicity against mouse 4T1 cells assessed as cell viability at 0.5 uM preincubated for 4 hrs followed by 2 J/cm2 light irradiation and measured after 24 hrs by MTT assay relative to control; assay type: functional; settings: 4T1, light or radiation study, read-out: Activity
MDA-MB-231 [12] = assay: Induction of ROS generation in human MDA-MB-231 cells incubated with DCF-DA probe for 30 mins followed by 2 J/cm2 light irradiation and measured after 1 hr by flow cytometric analysis (reference value: 2.1%); assay type: functional
[13] = Drug uptake in endoplasmic reticulum of human MDA-MB-231 cells at 10 uM after 4 hrs by ER tracker green-based confocal laser scanning microscopic analysis; assay type: ADME, subcellular; settings: mda-mb-231, 4 h
[14] = Drug uptake in heart of BALB/c mouse xenografted with mouse 4T1 cells at 10 mg/kg, iv measured at 12 hrs post injection by IVIS spectrum imaging; assay type: ADME, organism-based; settings: in vivo
MDA-MB-231 [15] = assay: Induction of apoptosis in human MDA-MB-231 cells assessed as necrotic cells after 24 hrs by Annexin-V FITC/propidium iodide staining based flow cytometric analysis (reference value: 4.24%); assay type: cell-based; settings: mda-mb-231, 24 h
[16] = Dark toxicity against human MCF7 cells assessed as cell viability at 0.5 uM after 24 hrs by MTT assay; assay type: cell-based; settings: mcf7, 24 h
Mus musculus [17] = assay: Toxicity in BALB/c mouse xenografted with mouse 4T1 cells assessed as effect on body weight at 1 mg/kg, iv pre-tretaed for 24 hrs followed by 50 J/cm2 light irradiation and measured at day 22 post dose; assay type: organism-based; settings: in vivo
MDA-MB-231 [18] = assay: Induction of apoptosis in human MDA-MB-231 cells assessed as necrotic cells after 24 hrs upon light irradiation by Annexin-V FITC/propidium iodide staining based flow cytometric analysis (reference value: 4.24%); assay type: functional
[19] = Drug uptake in tumor of BALB/c mouse xenografted with mouse 4T1 cells at 10 mg/kg, iv measured at 12 hrs post injection by IVIS spectrum imaging; assay type: ADME, organism-based, Neoplasm; settings: in vivo
[20] = Selectivity index, ratio of dark toxicity against human MDA-MB-231 cells at 0.5 uM to phototoxicity against human MDA-MB-231 cells at 0.5 uM; assay type: cell-based; settings: read-out: Selectivity Index
4T1 [21] = assay: Antitumor activity against mouse 4T1 cells xenografted in BALB/c mouse assessed as inhibition of tumor volume at 1 mg/kg, iv pretreated for 24 hrs followed by 50 J/cm2 light irradiation and measured at day 22 post dose relative to control; assay type: functional; settings: 4T1, light or radiation study
[22] = Dark toxicity against mouse 4T1 cells assessed as cell viability at 0.5 uM after 24 hrs by MTT assay; assay type: cell-based; settings: 4t1, 24 h
[23] = Induction of apoptosis in human MDA-MB-231 cells assessed as viable cells after 24 hrs by Annexin-V FITC/propidium iodide staining based flow cytometric analysis (reference value: 93.27%); assay type: cell-based; settings: read-out: Activity
Mus musculus [24] = assay: Nephrotoxicity in BALB/c mouse xenografted with mouse 4T1 cells assessed as pathological changes in kidney at 1 to 4 mg/kg, iv pre-tretaed for 24 hrs followed by 50 J/cm2 light irradiation and measured at day 22 post dose by hematoxylin and eosin staining based light microscopic analysis; assay type: toxicity, organism-based; settings: in vivo
4T1 [25] = assay: Antitumor activity against mouse 4T1 cells xenografted in BALB/c mouse at 4 mg/kg, iv preincubated for 24 hrs and measured at day 22 post dose; assay type: functional, organism-based
MDA-MB-231 [26] = assay: Induction of ROS generation in human MDA-MB-231 cells incubated with DCF-DA probe for 30 mins followed by 2 J/cm2 light irradiation and measured after 1 hr by flow cytometric analysis (reference value: 5.81%); assay type: functional
MDA-MB-231 [27] = assay: Induction of ROS generation in human MDA-MB-231 cells incubated with DCF-DA probe for 30 mins by flow cytometric analysis (reference value: 5.81%); assay type: cell-based; settings: mda-mb-231, 0.5 h

C=CC1=C(C)c2cc3[nH]c(cc4nc(cc5[nH]c(cc1n2)c(C)c5CCC(=O)[O-])C(CCC(=O)[O-])=C4C)c(C)c3C(C)OCCCCCC.[Na+].[Na+] (centres undefined)
Activity (Mus musculus [1]): Non-Toxic | Activity (Mus musculus [2]): Non-Toxic | Activity (MDA-MB-231 [3]): inactive | Activity (Mus musculus [4]): Non-Toxic | Drug uptake [5]: Active | Activity [6]: Dose-dependent effect | Drug uptake [7]: Active | Activity (Mus musculus [8]): Non-Toxic | Activity (Mus musculus [9]): Non-Toxic | Activity (MDA-MB-231 [10]): 2.21% | viability at 0.5 µM (4T1 [11]): 54.6% | Activity (MDA-MB-231 [12]): 46.7% | Drug uptake [13]: Active | Drug uptake [14]: Not Active | Activity (MDA-MB-231 [15]): 0.4% | Activity [16]: Non-Toxic | Activity (Mus musculus [17]): Non-Toxic | Activity (MDA-MB-231 [18]): 11.12% | Drug uptake [19]: Active | selectivity ratio at 0.5 µM [20]: 59.6 | inhibition in vivo at 1 mg/kg (4T1 [21]): 15.4% | Activity [22]: Non-Toxic | viability at 24 h [23]: 92.8% | Activity (Mus musculus [24]): Non-Toxic | Activity (4T1 [25]): inactive

C=Cc1c(C)c2cc3nc(cc4[nH]c(cc5nc(cc1[nH]2)C(C)=C5C(C)OCCCCCC)c(C)c4CCC(=O)[O-])C(CCC(=O)[O-])=C3C.[Na+].[Na+] (centres undefined)
Activity (Mus musculus [1]): Non-Toxic | Activity (Mus musculus [2]): Non-Toxic | Activity (MDA-MB-231 [3]): inactive | Activity (Mus musculus [4]): Non-Toxic | Drug uptake [5]: Active | Activity [6]: Dose-dependent effect | Drug uptake [7]: Active | Activity (Mus musculus [8]): Non-Toxic | Activity (Mus musculus [9]): Non-Toxic | viability at 0.5 µM (4T1 [11]): 47.3% | Activity (MDA-MB-231 [26]): 87.84% | Drug uptake [13]: Active | Drug uptake [14]: Not Active | Activity (MDA-MB-231 [15]): 0.58% | Activity [16]: Non-Toxic | Activity (Mus musculus [17]): Non-Toxic | Activity (MDA-MB-231 [18]): 10.12% | Drug uptake [19]: Active | Activity (MDA-MB-231 [27]): 6.34% | selectivity ratio at 0.5 µM [20]: 161 | inhibition in vivo at 1 mg/kg (4T1 [21]): 27.8% | Activity [22]: Non-Toxic | viability at 24 h [23]: 93.4% | Activity (Mus musculus [24]): Non-Toxic
